Data published in patent US20050054629A1, “Compounds and methods of treating cell proliferative diseases” (priority 2002, published 2005).
Where two headings read alike, the source gives them in different places.

Legend:
[1] = system: HCT116 colon adenocarcinoma; assay: Cytotoxicity assay (MTT), 6 days; format: cell-based, human; conditions: 6 days of treatment, read-out: Toxicity 6d (IC 50, μM) HCT116
Summary of the method: (§1)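 Survival is measured by formazan absorbance at 550 nm following 3 h incubation with 0.5 mg/ml MTT at 37° C. Treatment lasts 6 days at compound concentrations up to 50 μM with DMSO held at 1%. The 50% inhibitory concentration derives from surviving fraction.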

MDA231 = assay: Cytoskeleton analysis, actin staining (FITC-phalloidin); format: cell-based, human
Procedure: (§2) Since major rearrangements of cytoskeleton are observed in tumor cells and since the small GTPases are known to regulate these events, analysis of actin cytoskeleton was performed. Subconfluent cells seeded onto coverslips were treated with different concentration of compound (1, 10, 17.5, 25 and 50 μM) or vehicle for 24 h, before being fixed in 4% formaldehyde for 15 min., permeabilized in 0.2% Triton X100 for 5 minutes and incubated in PowerBlock (Biogenex) for 10 min. Actin filaments were stained with 0.5 μg/ml fluorescein isothiocyanate (FITC)-labelled phalloidin for 1 hour. Analysis was performed using an inverted fluorescent microscope.

MRC-5 = assay: Cytotoxicity assay (MTT), 6 days; format: cell-based; conditions: Homo sapiens, MRC5, 144 h, 6 days of treatment, read-out: Toxicity 6d (IC 50, μM) MRC-5
Summary of the method: as §1

MCF10-A = assay: Cytotoxicity assay (MTT), 6 days; format: cell-based; conditions: Homo sapiens, MCF-10A, 144 h, 6 days of treatment, read-out: Toxicity 6d (IC 50, μM) MCF10-A
Summary of the method: as §1

[2] = system: MDA-MB-231 breast carcinoma; assay: Cytotoxicity assay (MTT), 6 days; format: cell-based; conditions: Homo sapiens, MDA-MB-231, 144 h, 6 days of treatment, read-out: Toxicity 6d (IC 50, μM) MDA231
Summary of the method: as §1

H460 lung carcinoma = assay: Cytotoxicity assay (MTT), 6 days; format: cell-based; conditions: Homo sapiens, NCI-H460, 144 h, 6 days of treatment, read-out: Toxicity 6d (IC 50, μM) H460
Summary of the method: as §1

NIH3T3 mouse fibroblasts = assay: Cytotoxicity assay (MTT), 6 days; format: cell-based; conditions: NIH3T3, 144 h, 6 days of treatment, read-out: Toxicity 6d (IC 50, μM) NIH3T3
Summary of the method: as §1

Ras = assay: Ras-dependant signaling pathway analysis (reporter system); format: cell-based; set-up: key: −: no effect of the compound was observed; +: an effect of the compound was observed
Summary of the method: (§3)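 Ras and Rac signalling were measured with reporter systems. For colony formation, NIH3T3 cells were transfected with RasV12 or RacV12 plus neomycin plasmids, then grown 2-3 weeks in 400 μg/ml geneticin with compound at 1, 10, 17.5, 25 or 50 μM. Fuchsin-stained colonies of ≥50 cells were counted.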

cell architecture = assay: Cell architecture modification, phase contrast; format: cell-based; set-up: key: −: no effect of the compound was observed; +: an effect of the compound was observed
NIH3T3 cells = assay: Colony formation assay with constitutively activated Ras (RasV12) and Rac (RacV12); format: cell-based, mouse; set-up: key to Colony formation: −: no effect of the compound was observed; +: an effect of the compound was observed
Summary of the method: as §3

H460 = assay: Cytoskeleton analysis, actin staining (FITC-phalloidin); format: cell-based, human; conditions: H460 tumor cells
Procedure: as §2

HCT116 = assay: as above; format: cell-based, human; conditions: HCT116 tumor cells
Procedure: as §2

SMILES	IC50 [1]	IC50 ([1]; Homo sapiens, HCT-116, 144 h)	MDA-MB-231 spreading (MDA231)	Cell architecture modification actin staining MDA231 (MDA231; 24 h treatment)	IC50 (MRC-5)	IC50 (MCF10-A)	IC50 [2]	IC50 (H460 lung carcinoma)	IC50 (NIH3T3 mouse fibroblasts)	Small GTPases activities Ras (Ras)	Cell architecture modification phase contrast (cell architecture)	Colony formation (NIH3T3 cells)	Ras-dependent neoR clones formation (NIH3T3 cells; NIH3T3 transfected with RasVal12)	concentration at which dose-dependant increase in spreading and disruption of cell-to-cell junctions was observed (H460)	concentration at which dose-dependant increase in spreading and disruption of cell-to-cell junctions was observed (HCT116)
CCCc1c(OCCCCCOc2coc(CO)cc2=O)ccc(Cl)c1Cl [EH22900, 5-[5-(3,4-Dichloro-2-propylphenyloxy)pentyloxy]-2-(hydroxymethyl)-4H-pyran-4-one]	10 µM	≤ 15 µM	increased	cell spreading	25 µM	> 50 µM	30 µM	15 µM	30 µM	−	+	+	inhibited		
C/C=C/c1oc(CO)cc(=O)c1OCCCCCOc1ccc(Cl)c(Cl)c1CCC [EH31101, (E)-3-[5-(3,4-Dichloro-2-propylphenyloxy)pentyloxy]-6-(hydroxymethyl)-2-(propen-1-yl)-4H-pyran-4-one]		30 µM				35 µM	25 µM	25 µM	> 50 µM	−	+	−		25 µM	10 µM
